Calls of active or inactive are those of the source. The rule behind the calls is not given here.
Experiments:
HepG2 [1] = test: Cytotoxicity against human HepG2 cells assessed as decrease in cell proliferation after 48 hrs by MTT colorimetric assay; type: functional, cell-based; settings: HepG2, 48 h
Hep 3B2 = test: Cytotoxicity against human Hep3B cells assessed as decrease in cell proliferation after 48 hrs by MTT colorimetric assay; type: functional, cell-based
Bcap37 = test: Cytotoxicity against human Bcap37 cells assessed as decrease in cell proliferation after 48 hrs by MTT colorimetric assay; type: functional, cell-based; settings: Bcap37, 48 h
MCF7 [2] = test: Cytotoxicity against human MCF7 cells assessed as decrease in cell proliferation after 48 hrs by MTT colorimetric assay; type: functional, cell-based; settings: for IC50: Homo sapiens, MCF7, 48 h
U-251 = test: Cytotoxicity against human U251 cells assessed as decrease in cell proliferation after 48 hrs by MTT colorimetric assay; type: functional, cell-based; settings: U-251, 48 h
A549 [3] = test: Cytotoxicity against human A549 cells assessed as decrease in cell proliferation after 48 hrs by MTT colorimetric assay; type: functional, cell-based; settings: A549, 48 h
HepG2 [4] = test: Potency index, ratio of sarsasapogenin IC50 to test compound IC50 for human HepG2 cells; type: functional
A549 [5] = test: Potency index, ratio of sarsasapogenin IC50 to test compound IC50 for human A549 cells; type: functional
MCF7 [6] = test: Potency index, ratio of sarsasapogenin IC50 to test compound IC50 for human MCF7 cells; type: functional
MCF7 [7] = test: Cell cycle arrest in human MCF7 cells assessed as accumulation at G2/M phase at 1.5 to 6 uM after 48 hrs by propidium iodide staining-based flow cytometric method; type: functional
MCF7 [8] = test: Cell cycle arrest in human MCF7 cells assessed as accumulation at sub-G1 phase at 1.5 to 6 uM after 48 hrs by propidium iodide staining-based flow cytometric method; type: functional
MCF7 [9] = test: Induction of apoptosis in human MCF7 cells assessed as cell rounding at 1.5 to 6 uM after 48 hrs by inverted phase contrast microscopic method; type: functional, cell-based
MCF7 [10] = test: Induction of apoptosis in human MCF7 cells assessed as cell shrinkage at 1.5 to 6 uM after 48 hrs by inverted phase contrast microscopic method; type: functional, cell-based
MCF7 [11] = test: Induction of apoptosis in human MCF7 cells assessed as membrane blebbing at 1.5 to 6 uM after 48 hrs by inverted phase contrast microscopic method; type: functional, cell-based
MCF7 [12] = test: Induction of apoptosis in human MCF7 cells assessed as formation of apoptotic bodies at 1.5 to 6 uM after 48 hrs by inverted phase contrast microscopic method; type: functional, cell-based
MCF7 [13] = test: Induction of apoptosis in human MCF7 cells assessed as early apoptotic cells at 1.5 uM after 48 hrs by annexin-V/propidium iodide staining-based flow cytometric method (reference value: 1.17%); type: functional
MCF7 [14] = test: Induction of apoptosis in human MCF7 cells assessed as late apoptotic cells at 1.5 uM after 48 hrs by annexin-V/propidium iodide staining-based flow cytometric method (reference value: 1.43%); type: functional
MCF7 [15] = test: Induction of apoptosis in human MCF7 cells assessed as early apoptotic cells at 3 uM after 48 hrs by annexin-V/propidium iodide staining-based flow cytometric method (reference value: 1.17%); type: functional
MCF7 [16] = test: Induction of apoptosis in human MCF7 cells assessed as late apoptotic cells at 3 uM after 48 hrs by annexin-V/propidium iodide staining-based flow cytometric method (reference value: 1.43%); type: functional
MCF7 [17] = test: Induction of apoptosis in human MCF7 cells assessed as early apoptotic cells at 6 uM after 48 hrs by annexin-V/propidium iodide staining-based flow cytometric method (reference value: 1.17%); type: functional
MCF7 [18] = test: Induction of apoptosis in human MCF7 cells assessed as late apoptotic cells at 6 uM after 48 hrs by annexin-V/propidium iodide staining-based flow cytometric method (reference value: […]); type: functional
MCF7 [19] = test: Induction of apoptosis in human MCF7 cells assessed as upregulation of cleaved PARP level at 6 uM after 48 hrs by Western blot method relative to control; type: functional
MCF7 [20] = test: Induction of apoptosis in human MCF7 cells assessed as upregulation of cleaved caspase 7 level at 6 uM after 48 hrs by Western blot method relative to control; type: functional

SMILES	IC50 (HepG2 [1])	IC50 (Hep 3B2)	IC50 (Bcap37)	IC50 (MCF7 [2])	IC50 (U-251)	IC50 (A549 [3])	also measured
C[C@@H](CC[C@H]1O[C@H]2C[C@H]3[C@@H]4CC[C@@H]5C[C@@H](OCc6ccccc6)CC[C@]5(C)[C@H]4CC[C@]3(C)[C@H]2[C@@H]1C)CN1CCNCC1	> 100 µM	> 100 µM	> 100 µM	> 100 µM	> 100 µM	> 100 µM	
C[C@H](CO)CC[C@H]1O[C@H]2C[C@H]3[C@@H]4CC[C@@H]5C[C@@H](OCc6ccccc6)CC[C@]5(C)[C@H]4CC[C@]3(C)[C@H]2[C@@H]1C	14.5 µM	10.1 µM	25 µM	22.1 µM	19.8 µM	34.4 µM	
C[C@@H](CC[C@H]1O[C@H]2C[C@H]3[C@@H]4CC[C@@H]5C[C@@H](OCc6ccccc6)CC[C@]5(C)[C@H]4CC[C@]3(C)[C@H]2[C@@H]1C)CN(C)C	42.7 µM	28.3 µM	> 100 µM	> 100 µM	> 100 µM	91.3 µM	
COc1ccc(CO[C@H]2CC[C@@]3(C)[C@H](CC[C@@H]4[C@@H]3CC[C@]3(C)[C@H]5[C@H](C)[C@@H](CC[C@H](C)CN(C)C)O[C@H]5C[C@@H]43)C2)cc1	79.5 µM	23.4 µM	> 100 µM	> 100 µM	> 100 µM	> 100 µM	
COc1ccc(CO[C@H]2CC[C@@]3(C)[C@H](CC[C@@H]4[C@@H]3CC[C@]3(C)[C@H]5[C@H](C)[C@@H](CC[C@H](C)CN6CCCC6)O[C@H]5C[C@@H]43)C2)cc1	> 100 µM	69.9 µM	> 100 µM	> 100 µM	> 100 µM	> 100 µM	
C[C@H](CO)CC[C@H]1O[C@H]2C[C@H]3[C@@H]4CC[C@@H]5C[C@@H](OCc6ccc(F)cc6)CC[C@]5(C)[C@H]4CC[C@]3(C)[C@H]2[C@@H]1C	14.5 µM	11.7 µM	97.3 µM	44.1 µM	38.8 µM	25.1 µM	
C[C@H]1CC[C@@]2(OC1)O[C@H]1C[C@H]3[C@@H]4CC[C@@H]5C[C@@H](O)CC[C@]5(C)[C@H]4CC[C@]3(C)[C@H]1[C@@H]2C [SARSASAPOGENIN]	40.3 µM	> 100 µM	> 100 µM	49.2 µM	> 100 µM	38.1 µM	
C[C@@H](CC[C@H]1O[C@H]2C[C@H]3[C@@H]4CC[C@@H]5C[C@@H](OCc6ccc(F)cc6)CC[C@]5(C)[C@H]4CC[C@]3(C)[C@H]2[C@@H]1C)CN1CCCC1	4.38 µM	12.9 µM	9.68 µM	5.13 µM	7.1 µM	8.98 µM	Ratio IC50 (HepG2 [4]): 9.2
COc1ccc(CO[C@H]2CC[C@@]3(C)[C@H](CC[C@@H]4[C@@H]3CC[C@]3(C)[C@H]5[C@H](C)[C@@H](CC[C@H](C)CN6CCN(C)CC6)O[C@H]5C[C@@H]43)C2)cc1	21.4 µM	> 100 µM	9.12 µM	3.74 µM	8.37 µM	6.78 µM	
C[C@@H](CC[C@H]1O[C@H]2C[C@H]3[C@@H]4CC[C@@H]5C[C@@H](OCc6ccc(F)cc6)CC[C@]5(C)[C@H]4CC[C@]3(C)[C@H]2[C@@H]1C)CN(C)C	27.2 µM	> 100 µM	> 100 µM	17.9 µM	14.1 µM	4.02 µM	Ratio IC50 (A549 [5]): 9.5
CCN(CC)C[C@@H](C)CC[C@H]1O[C@H]2C[C@H]3[C@@H]4CC[C@@H]5C[C@@H](OCc6ccc(OC)cc6)CC[C@]5(C)[C@H]4CC[C@]3(C)[C@H]2[C@@H]1C	13.9 µM	> 100 µM	14.7 µM	4.83 µM	12.9 µM	14.3 µM	
COc1ccc(CO[C@H]2CC[C@@]3(C)[C@H](CC[C@@H]4[C@@H]3CC[C@]3(C)[C@H]5[C@H](C)[C@@H](CC[C@H](C)CN6CCNCC6)O[C@H]5C[C@@H]43)C2)cc1	4.35 µM	9.07 µM	8.83 µM		4.92 µM	4.43 µM	Activity (MCF7 [2]): Dose-dependent effect; Activity (MCF7 [2]; record 2): 2.95 µM; Ratio IC50 (MCF7 [6]): 16.7; Activity (MCF7 [7]): Active; Activity (MCF7 [8]): Active; Activity (MCF7 [9]): Active; Activity (MCF7 [10]): Active; Activity (MCF7 [11]): Active; Activity (MCF7 [12]): Active; Activity (MCF7 [13]): 3.24%; Activity (MCF7 [14]): 5.21%; Activity (MCF7 [15]): 4.51%; Activity (MCF7 [16]): 5.8%; Activity (MCF7 [17]): 4.35%; Activity (MCF7 [18]): 7.27%; fold change (FC) (MCF7 [19]): 13; fold change (FC) (MCF7 [20]): 16
C[C@@H](CC[C@H]1O[C@H]2C[C@H]3[C@@H]4CC[C@@H]5C[C@@H](OCc6ccccc6)CC[C@]5(C)[C@H]4CC[C@]3(C)[C@H]2[C@@H]1C)CN1CCCC1	30.4 µM	26.8 µM	36 µM	37.6 µM	23.6 µM	27.1 µM	
CO[C@H]1CC[C@@]2(C)[C@H](CC[C@@H]3[C@@H]2CC[C@]2(C)[C@H]4[C@H](C)[C@@H](CC[C@@H](C)CN5CCNCC5)O[C@H]4C[C@@H]32)C1	35.5 µM						
O=c1[nH]cc(F)c(=O)[nH]1 [FLUOROURACIL]	10.2 µM				48.7 µM		
C[C@@H](CC[C@H]1O[C@H]2C[C@H]3[C@@H]4CC[C@@H]5C[C@@H](OCc6ccc(F)cc6)CC[C@]5(C)[C@H]4CC[C@]3(C)[C@H]2[C@@H]1C)CN1CCN(C)CC1	35.6 µM	> 100 µM	> 100 µM	44.1 µM	> 100 µM	13.9 µM	
C[C@@H](CC[C@H]1O[C@H]2C[C@H]3[C@@H]4CC[C@@H]5C[C@@H](OCc6ccccc6)CC[C@]5(C)[C@H]4CC[C@]3(C)[C@H]2[C@@H]1C)CN1CCN(C)CC1	52.3 µM	70.8 µM	> 100 µM	> 100 µM	> 100 µM	> 100 µM	
CCN(CC)C[C@@H](C)CC[C@H]1O[C@H]2C[C@H]3[C@@H]4CC[C@@H]5C[C@@H](OCc6ccc(F)cc6)CC[C@]5(C)[C@H]4CC[C@]3(C)[C@H]2[C@@H]1C	26.4 µM	> 100 µM	> 100 µM	45.2 µM	> 100 µM	18 µM	
CO[C@H]1CC[C@@]2(C)[C@H](CC[C@@H]3[C@@H]2CC[C@]2(C)[C@H]4[C@H](C)[C@@H](CC[C@@H](C)CN5CCCC5)O[C@H]4C[C@@H]32)C1	4.24 µM						
CCN(CC)C[C@@H](C)CC[C@H]1O[C@H]2C[C@H]3[C@@H]4CC[C@@H]5C[C@@H](OCc6ccccc6)CC[C@]5(C)[C@H]4CC[C@]3(C)[C@H]2[C@@H]1C	44 µM	28.2 µM	> 100 µM	93 µM	> 100 µM	67.2 µM	
C[C@@H](CC[C@H]1O[C@H]2C[C@H]3[C@@H]4CC[C@@H]5C[C@@H](OCc6ccc(F)cc6)CC[C@]5(C)[C@H]4CC[C@]3(C)[C@H]2[C@@H]1C)CN1CCNCC1	8.61 µM	16.8 µM	15.6 µM	16.7 µM	31.3 µM	14.3 µM	Ratio IC50 (HepG2 [4]): 4.7
